Measured values taken from patent publication US20100144733A1, “Compounds, compositions and methods comprising heteroaromatic derivatives” (Institute for OneWorld Health, priority 2008, published 2010).

Legend:
CFTR = molecular target: T1, CFTR (Homo sapiens, UniProt P13569); test: T84 assay (FLIPR membrane potential dye, forskolin/IBMX-stimulated CFTR channel activity); type: cell-based; conditions: imidazole and triazole-containing compounds (Tables 13, 14, 14′), read-out: IC50 (μM) (T84 assay)
T1 construct: endogenous in cells; host or cells: T84 human colonic cells (ECACC)
Method in brief: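 Fluorescence from a membrane potential dye in T84 monolayers (HBSS with 10 mM Hepes) is followed each second for 150 s. Cells are exposed to test compound during the 45 min dye loading, then challenged with forskolin (10 μM) and IBMX (100 μM) to open CFTR. Inhibitors suppress the depolarization-driven fluorescence increase.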

CHO-CFTR cell line = molecular target: T2, CHO-CFTR cell line (Homo sapiens, UniProt P13569); test: CHO-CFTR assay (FLIPR assay, same conditions as the T84 assay); type: cell-based; conditions: imidazole and triazole-containing compounds
T2 construct: expressed in transfected cells; host or cells: CHO (CHO-CFTR cell line)
T2 sequence (P13569 whole entry): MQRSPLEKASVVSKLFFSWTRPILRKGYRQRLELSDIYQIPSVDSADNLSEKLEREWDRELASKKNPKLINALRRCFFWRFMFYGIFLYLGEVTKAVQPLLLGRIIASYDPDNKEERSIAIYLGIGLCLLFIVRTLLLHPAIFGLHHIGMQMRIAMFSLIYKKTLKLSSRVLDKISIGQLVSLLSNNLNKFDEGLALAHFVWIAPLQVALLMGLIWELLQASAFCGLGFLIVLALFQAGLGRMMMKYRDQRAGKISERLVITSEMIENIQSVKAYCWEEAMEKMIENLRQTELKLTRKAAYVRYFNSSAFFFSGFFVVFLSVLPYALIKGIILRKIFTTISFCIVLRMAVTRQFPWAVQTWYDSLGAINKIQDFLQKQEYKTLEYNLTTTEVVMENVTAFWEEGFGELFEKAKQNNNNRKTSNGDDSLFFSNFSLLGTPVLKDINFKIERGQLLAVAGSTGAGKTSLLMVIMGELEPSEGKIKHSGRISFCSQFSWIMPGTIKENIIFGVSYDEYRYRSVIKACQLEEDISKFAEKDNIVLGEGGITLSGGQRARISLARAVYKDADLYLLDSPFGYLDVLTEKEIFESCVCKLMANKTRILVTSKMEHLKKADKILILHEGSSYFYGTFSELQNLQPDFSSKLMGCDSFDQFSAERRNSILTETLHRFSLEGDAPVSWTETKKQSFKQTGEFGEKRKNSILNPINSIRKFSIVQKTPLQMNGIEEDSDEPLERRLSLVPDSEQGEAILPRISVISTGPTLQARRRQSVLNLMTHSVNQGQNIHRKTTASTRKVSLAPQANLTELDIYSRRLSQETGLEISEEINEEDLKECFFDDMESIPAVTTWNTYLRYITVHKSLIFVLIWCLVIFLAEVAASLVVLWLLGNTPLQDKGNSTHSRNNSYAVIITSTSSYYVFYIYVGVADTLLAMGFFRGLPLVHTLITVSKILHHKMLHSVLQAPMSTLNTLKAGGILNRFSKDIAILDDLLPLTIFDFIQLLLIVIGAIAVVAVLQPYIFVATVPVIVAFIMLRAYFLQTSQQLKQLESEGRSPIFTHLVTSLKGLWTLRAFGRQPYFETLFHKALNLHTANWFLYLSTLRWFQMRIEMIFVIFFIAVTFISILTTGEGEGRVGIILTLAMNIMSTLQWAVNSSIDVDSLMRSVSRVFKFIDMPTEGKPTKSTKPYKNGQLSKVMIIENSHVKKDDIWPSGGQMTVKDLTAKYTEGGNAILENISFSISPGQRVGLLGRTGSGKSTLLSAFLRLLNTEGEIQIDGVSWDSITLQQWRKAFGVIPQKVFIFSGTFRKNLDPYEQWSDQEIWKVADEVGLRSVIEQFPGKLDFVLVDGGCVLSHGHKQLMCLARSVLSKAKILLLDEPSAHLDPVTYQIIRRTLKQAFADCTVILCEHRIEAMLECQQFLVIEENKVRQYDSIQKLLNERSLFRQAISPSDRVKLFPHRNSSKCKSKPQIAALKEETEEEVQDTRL

T1 sequence (P13569 whole entry): as above

| IC50 (CFTR) [µM] | IC50 (CHO-CFTR cell line) [µM] | SMILES |
| --- | --- | --- |
| 2.53 | 32.9 | C=CCN(Cc1cccc(OC(F)(F)F)c1)C(=O)c1ncn(-c2cc(Cl)c(O)c(Cl)c2)n1 [103i, N-allyl-1-(3,5-dichloro-4-hydroxyphenyl)-N-(3-(trifluoromethoxy)benzyl)-1H-1,2,4-triazole-3-carboxamide] |
| 3.34 | 24.6 | CCN(Cc1cccc(OC(F)(F)F)c1)C(=O)c1ncn(-c2cc(Cl)c(O)c(Cl)c2)n1 [89i, 1-(3,5-dichloro-4-hydroxyphenyl)-N-ethyl-N-(3-(trifluoromethoxy)benzyl)-1H-1,2,4-triazole-3-carboxamide] |
| 17.6 | 2.31 | O=C(NCc1cccc(OC(F)(F)F)c1)c1cn(-c2cc(Br)c(O)c(Br)c2)cn1 [20i, 1-(3,5-Dibromo-4-hydroxyphenyl)-N-(3-(trifluoromethoxy)benzyl)-1H-imidazole-4-carboxamide] |
| 5.34 | 19.1 | CC(C)(C)c1ccc(Oc2ccc(CNC(=O)c3ncn(-c4cc(Cl)c(O)c(Cl)c4)n3)cc2)cc1 [68i, N-(4-(4-tert-butylphenoxy)benzyl)-1-(3,5-dichloro-4-hydroxyphenyl)-1H-1,2,4-triazole-3-carboxamide] |
| 0.75 | 6.58 | CCN(Cc1ccc(C(C)(C)C)cc1)C(=O)c1ncn(-c2cc(Cl)c(O)c(Cl)c2)n1 [88i, N-(4-tert-butylbenzyl)-1-(3,5-dichloro-4-hydroxyphenyl)-N-ethyl-1H-1,2,4-triazole-3-carboxamide] |
| 4.4 | 13.3 | O=C(c1ncn(-c2cc(Cl)c(O)c(Cl)c2)n1)N(Cc1ccccc1)Cc1ccc(Oc2ccccc2)cc1 [80i, N-benzyl-1-(3,5-dichloro-4-hydroxyphenyl)-N-(4-phenoxybenzyl)-1H-1,2,4-triazole-3-carboxamide] |
| 13.6 | 7.8 | Oc1c(Cl)cc(-n2cnc(C(O)(c3cc(F)cc(F)c3)c3cc(F)cc(F)c3)n2)cc1Cl [52i, 4-(3-(Bis(3,5-difluorophenyl)(hydroxy)methyl)-1H-1,2,4-triazol-1-yl)-2,6-dichlorophenol] |
| 1.73 | 26.9 | CC(C)(C)CCN(Cc1ccc(Cl)c(Cl)c1)C(=O)c1ncn(-c2cc(Cl)c(O)c(Cl)c2)n1 [107i, 1-(3,5-dichloro-4-hydroxyphenyl)-N-(3,4-dichlorobenzyl)-N-(3,3-dimethylbutyl)-1H-1,2,4-triazole-3-carboxamide] |
| 1.6 | 19.7 | CC(C)(C)c1ccc(CN(Cc2ccccc2)C(=O)c2ncn(-c3cc(Cl)c(O)c(Cl)c3)n2)cc1 [82i, N-benzyl-N-(4-tert-butylbenzyl)-1-(3,5-dichloro-4-hydroxyphenyl)-1H-1,2,4-triazole-3-carboxamide] |
| 1.85 | 9.09 | C=CCN(Cc1ccc(Oc2ccccc2)cc1)C(=O)c1ncn(-c2cc(Cl)c(O)c(Cl)c2)n1 [100i, N-allyl-1-(3,5-dichloro-4-hydroxyphenyl)-N-(4-phenoxybenzyl)-1H-1,2,4-triazole-3-carboxamide] |
| 4.48 | 7.8 | O=C(c1ncn(-c2cc(Cl)c(O)c(Cl)c2)n1)N(Cc1cccnc1)Cc1cccc(OC(F)(F)F)c1 [110i, 1-(3,5-dichloro-4-hydroxyphenyl)-N-(pyridin-3-ylmethyl)-N-(3-(trifluoromethoxy)benzyl)-1H-1,2,4-triazole-3-carboxamide] |
| 2.61 | 22.5 | CON(Cc1ccc(Oc2ccccc2)cc1)C(=O)c1ncn(-c2cc(Cl)c(O)c(Cl)c2)n1 [129i, 1-(3,5-dichloro-4-hydroxyphenyl)-N-methoxy-N-(4-phenoxybenzyl)-1H-1,2,4-triazole-3-carboxamide] |
| 2.63 | 18.9 | CC(C)N(Cc1ccc(Oc2ccccc2)cc1)C(=O)c1ncn(-c2cc(Cl)c(O)c(Cl)c2)n1 [95i, 1-(3,5-dichloro-4-hydroxyphenyl)-N-isopropyl-N-(4-phenoxybenzyl)-1H-1,2,4-triazole-3-carboxamide] |
| 4.26 | 5.38 | CN(Cc1ccc(C(C)(C)C)cc1)C(=O)c1ncn(-c2cc(Cl)c(O)c(Cl)c2)n1 [1i, N-(4-tert-butylbenzyl)-1-(3,5-dichloro-4-hydroxyphenyl)-N-methyl-1H-1,2,4-triazole-3-carboxamide] |
| 3.66 | 4.8 | O=C(NC(c1ccccc1)c1ccc(Cl)cc1)c1ncn(-c2cc(Cl)c(O)c(Cl)c2)n1 (stereo not shown) [33i, N-((4-chlorophenyl)(phenyl)methyl)-1-(3,5-dichloro-4-hydroxyphenyl)-1H-1,2,4-triazole-3-carboxamide] |
| 4.3 | 5.99 | O=C(NCc1ccc(Oc2cccc(N3CCCC3)c2)cc1)c1ncn(-c2cc(Cl)c(O)c(Cl)c2)n1 [69i, 1-(3,5-dichloro-4-hydroxyphenyl)-N-(4-(3-(pyrrolidin-1-yl)phenoxy)benzyl)-1H-1,2,4-triazole-3-carboxamide] |

| IC50 (CFTR) [µM] | IC50 (CHO-CFTR cell line) [µM] | SMILES |
| --- | --- | --- |
| 3.44 | 9.67 | CON(Cc1cccc(OC(F)(F)F)c1)C(=O)c1ncn(-c2cc(Cl)c(O)c(Cl)c2)n1 [125i, 1-(3,5-dichloro-4-hydroxyphenyl)-N-methoxy-N-(3-(trifluoromethoxy)benzyl)-1H-1,2,4-triazole-3-carboxamide] |
| 6.95 | 21.1 | O=C(c1ncn(-c2cc(Cl)c(O)c(Cl)c2)n1)N(Cc1cccnc1)Cc1cccc(C(F)(F)F)c1 [94i, 1-(3,5-dichloro-4-hydroxyphenyl)-N-(pyridin-3-ylmethyl)-N-(3-(trifluoromethyl)benzyl)-1H-1,2,4-triazole-3-carboxamide] |
| 7.93 | 12 | CC(C)N(Cc1cccc(OC(F)(F)F)c1)C(=O)c1ncn(-c2cc(Cl)c(O)c(Cl)c2)n1 [99i, 1-(3,5-dichloro-4-hydroxyphenyl)-N-isopropyl-N-(3-(trifluoromethoxy)benzyl)-1H-1,2,4-triazole-3-carboxamide] |
| 3.09 | 8.6 | CC(C)c1ccc(CC(NC(=O)c2ncn(-c3cc(Cl)c(O)c(Cl)c3)n2)C(=O)C(C)(C)C)cc1 (stereo not shown) [134i, 1-(3,5-dichloro-4-hydroxyphenyl)-N-(1-(4-isopropylphenyl)-4,4-dimethyl-3-oxopentan-2-yl)-1H-1,2,4-triazole-3-carboxamide] |
| 5.83 | 0.86 | O=C(NCc1ccc(Oc2cc(F)c(F)c(F)c2)cc1)c1ncn(-c2cc(Cl)c(O)c(Cl)c2)n1 [65i, 1-(3,5-dichloro-4-hydroxyphenyl)-N-(4-(3,4,5-trifluorophenoxy)benzyl)-1H-1,2,4-triazole-3-carboxamide] |
| 1.47 | 8.57 | CC(C)c1ccc(CN(Cc2cccnc2)C(=O)c2ncn(-c3cc(Cl)c(O)c(Cl)c3)n2)cc1 [92i, 1-(3,5-dichloro-4-hydroxyphenyl)-N-(4-isopropylbenzyl)-N-(pyridin-3-ylmethyl)-1H-1,2,4-triazole-3-carboxamide] |
| 1.18 | 4.72 | CC(C)(C)c1ccc(CNC(=O)c2ncn(-c3cc(Cl)c(O)c(Cl)c3)n2)cc1 [34i, N-(4-tert-butylbenzyl)-1-(3,5-dichloro-4-hydroxyphenyl)-1H-1,2,4-triazole-3-carboxamide] |
| 11.4 | 13.7 | CC(C)(C)CCN(Cc1cccnc1)C(=O)c1ncn(-c2cc(Cl)c(O)c(Cl)c2)n1 [78i, 1-(3,5-dichloro-4-hydroxyphenyl)-N-(3,3-dimethylbutyl)-N-(pyridin-3-ylmethyl)-1H-1,2,4-triazole-3-carboxamide] |
| 4.88 | 6.45 | O=C(NC(c1ccccc1)c1ccccc1)c1ncn(-c2cc(Cl)c(O)c(Cl)c2)n1 [2i, N-benzhydryl-1-(3,5-dichloro-4-hydroxyphenyl)-1H-1,2,4-triazole-3-carboxamide] |
| 17.4 | 7.5 | O=C(c1cn(-c2cc(Br)c(O)c(Br)c2)cn1)N1CCC(Cc2ccccc2)CC1 [19i, (4-benzylpiperidin-1-yl)(1-(3,5-dibromo-4-hydroxyphenyl)-1H-imidazol-4-yl)methanone] |
| 17.2 | 6.94 | Oc1c(Cl)cc(-n2cnc(C(O)(c3ccc(F)c(F)c3)c3ccc(F)c(F)c3)n2)cc1Cl [55i, 4-(3-(bis(3,4-difluorophenyl)(hydroxy)methyl)-1H-1,2,4-triazol-1-yl)-2,6-dichlorophenol] |
| 3.2 | 11.3 | O=C(NCc1ccc(Oc2ccc(OC(F)(F)F)cc2)cc1)c1ncn(-c2cc(Cl)c(O)c(Cl)c2)n1 [66i, 1-(3,5-dichloro-4-hydroxyphenyl)-N-(4-(4-(trifluoromethoxy)phenoxy)benzyl)-1H-1,2,4-triazole-3-carboxamide] |
| 2.53 | 22.1 | CC(C)c1ccc(CN(C(=O)c2ncn(-c3cc(Cl)c(O)c(Cl)c3)n2)C(C)C)cc1 [96i, 1-(3,5-dichloro-4-hydroxyphenyl)-N-isopropyl-N-(4-isopropylbenzyl)-1H-1,2,4-triazole-3-carboxamide] |
| 11.3 | 12.2 | O=C(NCc1ccc(Oc2ccc(CO)cc2)cc1)c1ncn(-c2cc(Cl)c(O)c(Cl)c2)n1 [76i, 1-(3,5-dichloro-4-hydroxyphenyl)-N-(4-(4-(hydroxymethyl)phenoxy)benzyl)-1H-1,2,4-triazole-3-carboxamide] |
| 15.6 | 40.1 | O=C(c1ncn(-c2cc(Cl)c(O)c(Cl)c2)n1)N(Cc1ccccc1)Cc1cccnc1 [75i, N-benzyl-1-(3,5-dichloro-4-hydroxyphenyl)-N-(pyridin-3-ylmethyl)-1H-1,2,4-triazole-3-carboxamide] |
| 13 | 4.27 | Oc1c(Cl)cc(-n2cnc(C(O)(c3cccc(Cl)c3)c3cccc(Cl)c3)n2)cc1Cl [53i, 4-(3-(bis(3-chlorophenyl)(hydroxy)methyl)-1H-1,2,4-triazol-1-yl)-2,6-dichlorophenol] |
